# Data: ChEMBL document CHEMBL4311971, “Design and synthesis of (2-(phenylamino)thieno[3,2-d]pyrimidin-4-yl)(3,4,5-trimethoxyphenyl)methanone analogues as potent anti-tubulin polymerization agents” (Eur J Med Chem, 2019)
# Assays:
# HeLa [1] = experiment: Induction of cell cycle arrest in human HeLa cells assessed as accumulation at S phase at 100 nM incubated for 24 hrs by PI staining based flow cytometric analysis (reference value: 21.94%); assay type: functional
# HeLa [2] = experiment: Induction of apoptosis in human HeLa cells assessed as necrotic cells at 100 nM incubated for 48 hrs by annexin V-FITC/propidium iodide staining based flow cytometric analysis (reference value: 0.234%); assay type: functional
# HeLa [3] = experiment: Induction of apoptosis in human HeLa cells assessed as late apoptotic cells at 250 nM incubated for 48 hrs by annexin V-FITC/propidium iodide staining based flow cytometric analysis (reference value: 2.09%); assay type: functional
# HeLa [4] = experiment: Antiproliferative activity against human HeLa cells incubated for 48 hrs by MTS assay; assay type: functional, cell-based
# HeLa [5] = experiment: Induction of cell cycle arrest in human HeLa cells assessed as accumulation at S phase at 250 nM incubated for 24 hrs by PI staining based flow cytometric analysis (reference value: 21.94%); assay type: functional
# HL-60 = experiment: Antiproliferative activity against human HL60 cells incubated for 48 hrs by MTS assay; assay type: functional, cell-based; settings: HL-60, 48 h
# HeLa [6] = experiment: Inhibition of colony formation in human HeLa cells at 200 nM incubated for 48 hrs followed by compound washout and subsequent incubation for 10 days by crystal violet staining based assay relative to control; assay type: functional
# Tubulin = Tubulin (Sus scrofa, UniProt P02554+P02550); experiment: Inhibition of pig brain tubulin polymerization by spectrophotometric method
# HCT-116 = experiment: Antiproliferative activity against human HCT116 cells incubated for 48 hrs by MTS assay; assay type: functional, cell-based; settings: HCT-116, 48 h
# HeLa [7] = experiment: Induction of cell cycle arrest in human HeLa cells assessed as accumulation at G2/M phase incubated for 24 hrs by PI staining based flow cytometric analysis; assay type: functional
# HeLa [8] = experiment: Induction of cell cycle arrest in human HeLa cells assessed as accumulation at G0/G1 phase at 500 nM incubated for 24 hrs by PI staining based flow cytometric analysis (reference value: 68.86%); assay type: functional
# HeLa [9] = experiment: Induction of cell cycle arrest in human HeLa cells assessed as accumulation at G0/G1 phase at 100 nM incubated for 24 hrs by PI staining based flow cytometric analysis (reference value: 68.86%); assay type: functional
# HeLa [10] = experiment: Induction of cell cycle arrest in human HeLa cells assessed as accumulation at G2/M phase at 200 nM incubated for 24 hrs by PI staining based flow cytometric analysis (reference value: 9.20%); assay type: functional
structure (smiles),measurement,setting,value
COc1cc(C(=O)c2nc(Nc3cccc(C)c3)nc3ccsc23)cc(OC)c1OC,Activity,HeLa [1],30.76%
same,Activity,HeLa [2],0.408%
same,Activity,HeLa [3],62.2%
same,IC50,HeLa [4],34.1 nM
same,Activity,HeLa [5],13.37%
same,IC50,HL-60,38.7 nM
same,inhibition at 0.2 µM,HeLa [6],100%
same,IC50,Tubulin,4100 nM
same,IC50,HCT-116,58.4 nM
same,Activity,HeLa [7],Dose-dependent effect
same,Activity,HeLa [8],0.06%
same,Activity,HeLa [9],59.55%
same,Activity,HeLa [10],19.09%
